From patent publication US20100204129A1, “USE OF A PEPTIDE AS A THERAPEUTIC AGENT” (priority 2008, published 2010)

What was measured:
[1] = system: MRC-5 cells; conditions: human, 6 days
Protocol: For cytotoxicity testing, MRC-5 cells were seeded at 2,500 cells/well in 96 well plates using growth medium. […] The following day, peptide was added and tested in duplicates. After a 6 days incubation period, cell viability was measured using CellTiter 96 Solution (Promega). Plates were incubated for additional 4 hours at 37° C. Adhesive plate sealers were used in place of lids, the sealed plates were inverted several times to mix the soluble formazan product and the plate was read spectrophotometrically at 490/560 nm with a Molecular Devices Vmax plate reader.

[2] = system: HCMV strain AD169; experiment: HCMV plaque reduction assay in MRC-5 cells; conditions: HCMV in MRC-5 cells; peptide 10 micrograms per ml; 7-10 days
[3] = system: HepG2-2.2.15 cells; conditions: peptide 10 micrograms per ml, dye uptake assay, % cell control
[4] = system: CEM-SS cells; experiment: Cytotoxicity in HIV-1 assay (MTS cell viability); conditions: CEM-SS cells, cells plus peptide only; peptide 10 micrograms per ml; MTS
[5] = system: HIV-1IIIB; experiment: HIV-1 antiviral assay (CPE reduction, MTS); format: cell-based; conditions: peptide 10 micrograms per ml, 6 days post-infection

Nc1nc(O)c2ncn(COC(CO)CO)c2n1 [Ganciclovir, reference compound]
% Cell viability [1]: 100%
% plaque reduction [2]: 100%

Nc1ccn([C@@H]2CS[C@H](CO)O2)c(=O)n1 [3TC, Lamivudine, reference compound]
% Cell viability [3]: 95.8%

Cc1cn([C@H]2C[C@H](N=[N+]=[N-])[C@@H](CO)O2)c(=O)[nH]c1=O [AZT, reference compound]
% Cell viability [4]: 97%
% CPE reduction in HIV-1 infected CEM-SS cells [5]: 99%

CC(C)(C)NC(=O)[C@@H]1CN(Cc2cccnc2)CCN1C[C@@H](O)C[C@@H](Cc1ccccc1)C(=O)N[C@H]1c2ccccc2C[C@H]1O [Indinavir, indinavir]
% CPE reduction in HIV-1 infected CEM-SS cells [5]: 100%
